Assay results taken from ChEMBL document CHEMBL1127695, “Rational modification of human synovial fluid phospholipase A2 inhibitors” (J Med Chem, 1994).

Tests used:
[1] = target: Phospholipase A2, major isoenzyme (Sus scrofa) (UniProt P00592); assay: Tested for the inhibition of porcine pancreatic enzyme; conditions: concentration not given here
[2] = target: T1, Phospholipase A2, membrane associated (Homo sapiens) (UniProt P14555); assay: Tested for the inhibition of human synovial fluid enzyme phospholipase A2 (PLA2); conditions: concentration not given here
T1 sequence (whole entry): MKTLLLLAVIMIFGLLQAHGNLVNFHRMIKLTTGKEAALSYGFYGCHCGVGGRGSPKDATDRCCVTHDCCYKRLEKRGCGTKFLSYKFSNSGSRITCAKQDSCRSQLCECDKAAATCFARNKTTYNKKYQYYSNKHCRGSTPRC

[3] = target: T1, Phospholipase A2, membrane associated (Homo sapiens); assay: Tested for the inhibition of human synovial fluid phospholipase A2

Phospholipase A2, major isoenzyme (Sus scrofa), sequence (P00592 23-146 limits assumed): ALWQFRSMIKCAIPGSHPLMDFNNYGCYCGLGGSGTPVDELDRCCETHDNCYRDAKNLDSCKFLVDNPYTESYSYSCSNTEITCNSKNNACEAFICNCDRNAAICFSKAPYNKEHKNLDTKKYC

| inhibition [1] [%] | inhibition [2] [%] | X1(50) (mole fraction) [3] | Compound |
| --- | --- | --- | --- |
| 43 | 66 | – | CCCCCCCCCCS(=O)(=O)NC(CCCCCC)COP(=O)(O)OCCO (stereo not drawn) |
| – | – | 0.025 | CCCCCCCCOC[C@H](COP(=O)(O)OCCN)OP(=O)(O)CCCCCCC |
